Read-outs that look alike come from different tables or passages of the source.
Tests used:
Assay type in all cases: in vivo
[1] = tested on: Frankliniella occidentalis; assay: Insecticidal activity, spray on pre-infested radish plants: Frankliniella occidentalis; settings: for pest or weed control at 1 ppm / pest or weed control at 10 ppm / pest or weed control at 25 ppm: Frankliniella occidentalis, 144 h, read-out: fatality rate on Frankliniella occidentalis; for Fatality rate on Frankliniella occidentalis (%): Table 3
Method: (§1) For determination of insecticidal activity, the test method was as follows: a test solution with a desired concentration was prepared by dissolving a test compound sample in a suitable solvent (the kind of solvent was such as acetone, methanol, DMSO, etc., and was selected according to its dissolving ability for the sample). The test cell was composed of a small open container with 12-15 day old radish plants inside. The plants were pre-infested by placing 30-40 pests located on one leaf cut from the cultivated plant on one leaf of the test plant (leaf cutting method). As the leaves dehydrated, the pests moved on the test plants. After the pre-infesting, the soil of the test cells was covered with a layer of sand.
The test method was as follows: the test was repeated for three times, and after spraying the formulated test compound, each test unit was allowed to dry for 1 hour, and then a black mesh cover was placed at the top. The test units were kept in a growth chamber at 25° C. and 70% relative humidity for 6 days. The mortality (fatality rate) of the insects was then visually assessed for each test unit, and the fatality rate was calculated as follows:
[formula] (1) Test Results for the Control of Frankliniella occidentalis by Exemplary Example Compounds

Plutella xylostella = assay: Insecticidal activity, spray on pre-infested radish plants: Plutella xylostella; settings: for pest or weed control at 0.1 ppm / pest or weed control at 1 ppm / pest or weed control at 10 ppm: Plutella xylostella, 144 h, read-out: fatality rate on Plutella xylostella; for Fatality rate on Plutella xylostella (%): Table 3
Method: as §1
(§2) The test method was as follows: the test was repeated for three times, and after spraying the formulated test compound, each test unit was allowed to dry for 1 hour, and then a black mesh cover was placed at the top. The test units were kept in a growth chamber at 25° C. and 70% relative humidity for 6 days. The mortality (fatality rate) of the insects was then visually assessed for each test unit, and the fatality rate was calculated as follows: […]

Pieris rapae = assay: Insecticidal activity, spray on pre-infested radish plants: Pieris rapae; settings: 144 h, read-out: fatality rate on Pieris rapae
Method: as §1, §2

Mythimna separata = assay: Insecticidal activity, spray on pre-infested radish plants: Mythimna separata; settings: for pest or weed control at 0.1 ppm / pest or weed control at 1 ppm / pest or weed control at 10 ppm: Mythimna separata, 144 h, read-out: fatality rate on Mythimna separata; for Fatality rate on Mythimna separata (%): Table 3
Method: as §1, §2

Spodoptera litura = assay: Insecticidal activity, spray on pre-infested radish plants: Spodoptera litura; settings: 144 h, read-out: fatality rate on Spodoptera litura
Method: as §1, §2

Chilo suppressalis = assay: Insecticidal activity, spray on pre-infested radish plants: Chilo suppressalis; settings: for pest or weed control at 0.1 ppm / pest or weed control at 1 ppm / pest or weed control at 10 ppm: Chilo suppressalis, 144 h, read-out: fatality rate on Chilo suppressalis; for Fatality rate on Chilo suppressalis (%): Table 3
Method: as §1, §2

Cnaphalocrocis medinalis = assay: Insecticidal activity, spray on pre-infested radish plants: Cnaphalocrocis medinalis; settings: 144 h, read-out: fatality rate on Cnaphalocrocis medinalis
Method: as §1, §2

Tetranychus cinnabarinus = assay: Acaricidal activity, slide immersion of female adult mites: Tetranychus cinnabarinus; settings: read-out: fatality rate on Tetranychus cinnabarinus
Method: The test method was as follows: a test solution with a desired concentration was prepared by dissolving a test compound sample in a suitable solvent (the kind of solvent was such as acetone, methanol, DMSO, etc., and was selected according to its dissolving ability for the sample). A double-sided adhesive tape was cut into 2-3 cm long pieces, the pieces were attached to one end of a microscope slide, paper pieces on the adhesive tape were removed using tweezers, female adult mites which were consistent in size, bright in body color and lively in action were selected using a zero-size brush pen, the backs of the female adult mites were adhered to the double-sided adhesive tape (note: the adhesion should not cover mite feet, mite whiskers and mouthparts), with 4 rows of mites adhered to each piece and 10 heads of the mites adhered to each row.
One end of the glass slide with the mites was immersed into a drug liquid, with slightly shaking for 5 seconds, and then the slide was taken out. The excess drug liquid around the mite body and is surroundings is quickly sucked off using absorbent paper. The slide was placed in the biochemical incubator described above, and the results were checked by using binoculars after 24 hours. The mites were slightly touched by using a brush pen, the mites with immobility in feet were considered to be dead, and the fatality rate was calculated. The fatality rate was calculated as follows: […]

[2] = dose 1 ppm, immersion 5 seconds, checked after 24 hours
[3] = dose 10 ppm, immersion 5 seconds, checked after 24 hours
[4] = dose 25 ppm, immersion 5 seconds, checked after 24 hours

Cc1cc(C2=NOC(c3cc(F)c(F)c(F)c3)(C(F)(F)F)C2)ccc1C(=O)NCc1cnc(Cl)cc1Cl (stereo not drawn) [Compound 8]
pest or weed control at 1 ppm ([1]; dose 1 ppm, spray, 6 days): > 80%
pest or weed control at 10 ppm ([1]; dose 10 ppm, spray, 6 days): > 80%
pest or weed control at 25 ppm ([1]; dose 25 ppm, spray, 6 days): > 80%
pest or weed control at 0.1 ppm (Plutella xylostella; dose 0.1 ppm, spray, 6 days): > 80%
pest or weed control at 1 ppm (Plutella xylostella; dose 1 ppm, spray, 6 days): > 80%
pest or weed control at 10 ppm (Plutella xylostella; dose 10 ppm, spray, 6 days): > 80%
pest or weed control at 0.1 ppm (Pieris rapae; dose 0.1 ppm, spray, 6 days): > 80%
pest or weed control at 1 ppm (Pieris rapae; dose 1 ppm, spray, 6 days): > 80%
pest or weed control at 10 ppm (Pieris rapae; dose 10 ppm, spray, 6 days): > 80%
pest or weed control at 0.1 ppm (Mythimna separata; dose 0.1 ppm, spray, 6 days): > 80%
pest or weed control at 1 ppm (Mythimna separata; dose 1 ppm, spray, 6 days): > 80%
pest or weed control at 10 ppm (Mythimna separata; dose 10 ppm, spray, 6 days): > 80%
pest or weed control at 0.1 ppm (Spodoptera litura; dose 0.1 ppm, spray, 6 days): > 80%
pest or weed control at 1 ppm (Spodoptera litura; dose 1 ppm, spray, 6 days): > 80%
pest or weed control at 10 ppm (Spodoptera litura; dose 10 ppm, spray, 6 days): > 80%
pest or weed control at 0.1 ppm (Chilo suppressalis; dose 0.1 ppm, spray, 6 days): > 80%
pest or weed control at 1 ppm (Chilo suppressalis; dose 1 ppm, spray, 6 days): > 80%
pest or weed control at 10 ppm (Chilo suppressalis; dose 10 ppm, spray, 6 days): > 80%
pest or weed control at 0.1 ppm (Cnaphalocrocis medinalis; dose 0.1 ppm, spray, 6 days): > 80%
pest or weed control at 1 ppm (Cnaphalocrocis medinalis; dose 1 ppm, spray, 6 days): > 80%
pest or weed control at 10 ppm (Cnaphalocrocis medinalis; dose 10 ppm, spray, 6 days): > 80%
pest or weed control at 1 ppm (Tetranychus cinnabarinus; [2]): > 80%
pest or weed control at 10 ppm (Tetranychus cinnabarinus; [3]): > 80%
pest or weed control at 25 ppm (Tetranychus cinnabarinus; [4]): > 80%

Cc1cc(C2=NOC(c3cc(Cl)c(F)c(Cl)c3)(C(F)(F)F)C2)ccc1C(=O)NCc1ncc(C(F)(F)F)cc1Cl (stereo not drawn) [Compound 9, N-((3-chloro-5-(trifluoromethyl)pyridin-2-yl)methyl)-4-(5-(3,5-dichloro-4-fluorophenyl)-5-(trifluoromethyl)-4,5-dihydroisoxazol-3-yl)-2-methylbenzamide]
Fatality rate on Frankliniella occidentalis (%) ([1]; 1 ppm): 95%
Fatality rate on Frankliniella occidentalis (%) ([1]; 10 ppm): 100%
Fatality rate on Frankliniella occidentalis (%) ([1]; 25 ppm): 100%
pest or weed control at 1 ppm [1]: > 80%
pest or weed control at 10 ppm [1]: > 80%
pest or weed control at 25 ppm [1]: > 80%
Fatality rate on Plutella xylostella (%) (Plutella xylostella; 0.1 ppm): 100%
Fatality rate on Plutella xylostella (%) (Plutella xylostella; 1 ppm): 100%
Fatality rate on Plutella xylostella (%) (Plutella xylostella; 10 ppm): 100%
pest or weed control at 0.1 ppm (Plutella xylostella): > 80%
pest or weed control at 1 ppm (Plutella xylostella): > 80%
pest or weed control at 10 ppm (Plutella xylostella): > 80%
pest or weed control at 0.1 ppm (Pieris rapae): > 80%
pest or weed control at 1 ppm (Pieris rapae): > 80%
pest or weed control at 10 ppm (Pieris rapae): > 80%
Fatality rate on Mythimna separata (%) (Mythimna separata; 0.1 ppm): 100%
Fatality rate on Mythimna separata (%) (Mythimna separata; 1 ppm): 100%
Fatality rate on Mythimna separata (%) (Mythimna separata; 10 ppm): 100%
pest or weed control at 0.1 ppm (Mythimna separata): > 80%
pest or weed control at 1 ppm (Mythimna separata): > 80%
pest or weed control at 10 ppm (Mythimna separata): > 80%
pest or weed control at 0.1 ppm (Spodoptera litura): > 80%
pest or weed control at 1 ppm (Spodoptera litura): > 80%
pest or weed control at 10 ppm (Spodoptera litura): > 80%
Fatality rate on Chilo suppressalis (%) (Chilo suppressalis; 0.1 ppm): 95%
Fatality rate on Chilo suppressalis (%) (Chilo suppressalis; 1 ppm): 100%
Fatality rate on Chilo suppressalis (%) (Chilo suppressalis; 10 ppm): 100%
pest or weed control at 0.1 ppm (Chilo suppressalis): > 80%
pest or weed control at 1 ppm (Chilo suppressalis): > 80%
pest or weed control at 10 ppm (Chilo suppressalis): > 80%
pest or weed control at 0.1 ppm (Cnaphalocrocis medinalis): > 80%
pest or weed control at 1 ppm (Cnaphalocrocis medinalis): > 80%
pest or weed control at 10 ppm (Cnaphalocrocis medinalis): > 80%
pest or weed control at 1 ppm (Tetranychus cinnabarinus; 24 h): > 80%
pest or weed control at 10 ppm (Tetranychus cinnabarinus; 24 h): > 80%
pest or weed control at 25 ppm (Tetranychus cinnabarinus; 24 h): > 80%

Cc1cc(C2=NOC(c3cc(F)c(F)c(F)c3)(C(F)(F)F)C2)ccc1C(=O)NCc1ncc(C(F)(F)F)cc1Cl (stereo not drawn) [Compound 10, N-((3-chloro-5-(trifluoromethyl)pyridin-2-yl)methyl)-2-methyl-4-(5-(trifluoromethyl)-5-(3,4,5-trifluorophenyl)-4,5-dihydroisoxazol-3-yl)benzamide]
Fatality rate on Frankliniella occidentalis (%) ([1]; 1 ppm): 85%
Fatality rate on Frankliniella occidentalis (%) ([1]; 10 ppm): 100%
Fatality rate on Frankliniella occidentalis (%) ([1]; 25 ppm): 100%
pest or weed control at 1 ppm ([1]; dose 1 ppm, spray, 6 days): > 80%
pest or weed control at 10 ppm ([1]; dose 10 ppm, spray, 6 days): > 80%
pest or weed control at 25 ppm ([1]; dose 25 ppm, spray, 6 days): > 80%
Fatality rate on Plutella xylostella (%) (Plutella xylostella; 0.1 ppm): 90%
Fatality rate on Plutella xylostella (%) (Plutella xylostella; 1 ppm): 100%
Fatality rate on Plutella xylostella (%) (Plutella xylostella; 10 ppm): 100%
pest or weed control at 0.1 ppm (Plutella xylostella; dose 0.1 ppm, spray, 6 days): > 80%
pest or weed control at 1 ppm (Plutella xylostella; dose 1 ppm, spray, 6 days): > 80%
pest or weed control at 10 ppm (Plutella xylostella; dose 10 ppm, spray, 6 days): > 80%
pest or weed control at 0.1 ppm (Pieris rapae; dose 0.1 ppm, spray, 6 days): > 80%
pest or weed control at 1 ppm (Pieris rapae; dose 1 ppm, spray, 6 days): > 80%
pest or weed control at 10 ppm (Pieris rapae; dose 10 ppm, spray, 6 days): > 80%
Fatality rate on Mythimna separata (%) (Mythimna separata; 0.1 ppm): 85%
Fatality rate on Mythimna separata (%) (Mythimna separata; 1 ppm): 100%
Fatality rate on Mythimna separata (%) (Mythimna separata; 10 ppm): 100%
pest or weed control at 0.1 ppm (Mythimna separata; dose 0.1 ppm, spray, 6 days): > 80%
pest or weed control at 1 ppm (Mythimna separata; dose 1 ppm, spray, 6 days): > 80%
pest or weed control at 10 ppm (Mythimna separata; dose 10 ppm, spray, 6 days): > 80%
pest or weed control at 0.1 ppm (Spodoptera litura; dose 0.1 ppm, spray, 6 days): > 80%
pest or weed control at 1 ppm (Spodoptera litura; dose 1 ppm, spray, 6 days): > 80%
pest or weed control at 10 ppm (Spodoptera litura; dose 10 ppm, spray, 6 days): > 80%
Fatality rate on Chilo suppressalis (%) (Chilo suppressalis; 0.1 ppm): 85%
Fatality rate on Chilo suppressalis (%) (Chilo suppressalis; 1 ppm): 100%
Fatality rate on Chilo suppressalis (%) (Chilo suppressalis; 10 ppm): 100%
pest or weed control at 0.1 ppm (Chilo suppressalis; dose 0.1 ppm, spray, 6 days): > 80%
pest or weed control at 1 ppm (Chilo suppressalis; dose 1 ppm, spray, 6 days): > 80%
pest or weed control at 10 ppm (Chilo suppressalis; dose 10 ppm, spray, 6 days): > 80%
pest or weed control at 0.1 ppm (Cnaphalocrocis medinalis; dose 0.1 ppm, spray, 6 days): > 80%
pest or weed control at 1 ppm (Cnaphalocrocis medinalis; dose 1 ppm, spray, 6 days): > 80%
pest or weed control at 10 ppm (Cnaphalocrocis medinalis; dose 10 ppm, spray, 6 days): > 80%
pest or weed control at 1 ppm (Tetranychus cinnabarinus; [2]): > 80%
pest or weed control at 10 ppm (Tetranychus cinnabarinus; [3]): > 80%
pest or weed control at 25 ppm (Tetranychus cinnabarinus; [4]): > 80%

Reference: patent US12564193B2, “Isoxazoline-substituted benzamide derivative, and preparation method therefor and use thereof” (SHANDONG UNITED PESTICIDE INDUSTRY CO., LTD., priority 2020, dated 2026)
